Test system: adult subjects with PSC
Assay: Phase 2, multicenter, dose-ranging, 18-week, placebo-controlled study of BUDCA in PSC
Assay type: in vivo, human
Settings: for Share of subjects achieving a 25% reduction in ALP: 0 subjects on placebo; for Percent change from Baseline in GGT at Week 6: all subjects
Procedure: A Phase 2, multicenter, dose-ranging, 18-week study was conducted comparing two dose regimens of BUDCA (500 mg BID and 1,000 mg BID) to placebo in adult subjects with PSC.
BUDCA drug product (also herein referred to as HTD1801) is a film-coated tablet containing 250 mg of berberine ursodeoxycholate.
The clinical study design consisted of an initial randomized, double-blind, placebo-and dose-controlled, parallel-group period (Period 1), followed by a dose-controlled extension period (Period 2), which is followed by a placebo-controlled randomized withdrawal period (Period 3). • Period 1: Subjects were randomized to receive BID doses of 500 mg, 1,000 mg, or matching placebo for 6 weeks. The primary analysis was based on this initial 6-week randomized, double-blind, placebo- and dose-controlled, parallel-group period. • Period 2: Subjects previously randomized to 500 mg BID or 1,000 mg BID continued for 6 more weeks at that previous dose, while subjects previously randomized to placebo were re-randomized to receive 6 weeks of either 500 mg BID or 1,000 mg BID. • Period 3: Subjects were re-randomized to either continue on the active treatment they had received in Period 2 or be assigned to placebo.
Patients with a known diagnosis of PSC based upon magnetic resonance cholangiopancreatography (MRCP) or endoscopic retrograde cholangiopancreatography (ERCP) findings were eligible for inclusion in this study. To be eligible for randomization into the study, serum ALP levels at screening had to be elevated at least above 1.5 times the upper limit of normal (ULN).
The primary endpoint was the absolute change in ALP from Baseline to Week 6 (Period 1).
For this study, 88 subjects with PSC were screened, 59 were randomized, 55 received at least 1 dose of study drug (safety population), and 54 had at least 1 post-dose efficacy assessment (modified intent-to-treat (mITT) population).
All statistical tests were two-sided with an alpha level of 0.05. The statistical analyses were conducted with the SAS® System version 9.4 or higher. All analyses were subject to formal verification procedures.

[1] = Baseline ALP <3x ULN, 500 mg BID (n=8)
[2] = Baseline ALP <3x ULN, 1,000 mg BID (n=16)
[3] = Baseline ALP ≥3x ULN, 500 mg BID (n=7)
[4] = Baseline ALP ≥3x ULN, 1,000 mg BID (n=8)

COc1ccc2cc3[n+](cc2c1OC)CCc1cc2c(cc1-3)OCO2.C[C@H](CCC(=O)[O-])[C@H]1CC[C@H]2[C@@H]3[C@@H](O)C[C@@H]4C[C@H](O)CC[C@]4(C)[C@H]3CC[C@]12C [BUDCA, berberine ursodeoxycholate]
Share of subjects achieving a 25% reduction in ALP (500 mg BID, prior UDCA use, week 6): 33%
Percent change from Baseline in GGT at Week 6 (500 mg BID): -21%
Percent change in GGT at Week 6 (500 mg BID, subjects without prior UDCA use): -42%
Percent change from Baseline in GGT at Week 6 (1,000 mg BID): -40%
Percent change in GGT at Week 6 (1,000 mg BID, subjects without prior UDCA use): -67%
Mean (SD) change from Baseline to Week 6 in ALP [1]: -13 (118) U/L
Mean (SD) change from Baseline to Week 6 in ALT [1]: -63 (104) U/L
Mean (SD) change from Baseline to Week 6 in AST [1]: -18 (41) U/L
Mean (SD) change from Baseline to Week 6 in ALP [2]: -20 (106) U/L
Mean (SD) change from Baseline to Week 6 in ALT [2]: -30 (72) U/L
Mean (SD) change from Baseline to Week 6 in AST [2]: -14 (26) U/L
Mean (SD) change from Baseline to Week 6 in ALP [3]: -138 (134) U/L
Mean (SD) change from Baseline to Week 6 in ALT [3]: -48 (74) U/L
Mean (SD) change from Baseline to Week 6 in AST [3]: -37 (49) U/L
Mean (SD) change from Baseline to Week 6 in ALP [4]: -185 (143) U/L
Mean (SD) change from Baseline to Week 6 in ALT [4]: -80 (56) U/L
Mean (SD) change from Baseline to Week 6 in AST [4]: -37 (39) U/L
Absolute change in ALP from Baseline to Week 6 (primary efficacy endpoint) (Period 1, both doses, compared to an increase in the placebo group): clinically meaningful and statistically significant decrease in ALP
Number of subjects achieving ALP <1.5 x ULN (Period 3, pooled active-to-active groups, depending on the week examined): 4-6
Reduction of GGT (Subject 18-003, 1,000 mg BID, Week 18): ~ 10%
ALP relative to ULN (Subject 18-003, 1,000 mg BID, after Week 12 through Week 18, baseline 1.8-fold ULN, prior UDCA 15 mg/kg): below 1.5 fold ULN
Reduction of GGT (Subject 23-004, 1,000 mg BID, Week 18): ~50%
ALP relative to ULN (Subject 23-004, 1,000 mg BID, Week 18, baseline 2.6-fold ULN, prior UDCA 12 mg/kg): below 1.6 fold ULN
Response rate with 1,000 mg BID compared with 500 mg BID, each efficacy endpoint (Week 6): ~ 2 fold
Share of subjects achieving a 25% reduction in ALP (active treatment, subjects without prior UDCA use): Over half
Mean total bilirubin, albumin, and platelets (all treatments throughout the study): remained stable and within normal range
Safety and tolerability (subjects with PSC, 500 mg BID and 1,000 mg BID, up to 18 weeks): safe and generally well tolerated

Source: US20230346803A1, “COMPOSITIONS OF BERBERINE URSODEOXYCHOLATE AND METHODS THEREOF FOR TREATING PRIMARY SCLEROSING CHOLANGITIS” (SHENZHEN HIGHTIDE BIOPHARMACEUTICAL LTD., priority 2021, published 2023)
